Several values for one entry are separate records, joined by “and”; a condition that tells them apart may be missing. Equal entries are not always repeated.
Assays:
PI3Kγ = PI3Kγ (Homo sapiens, UniProt P48736); experiment: Target kinase 10-point inhibition assay, PI3Kγ; format: biochemical; conditions: PI3K gamma, replicates
Description: (§1) Quantitation of kinase inhibition was carried out by Life Technologies (Madison, WI) using the SelectScreen profiling platforms Z’-LYTE^TM and Adapta^TM. Single-point broad panel kinome screening was performed at 2.5 µM LP-182 against all kinases within the Z’-LYTE^TM and Adapta^TM assays (321 kinase isoforms, holoenzymes, or mutant variants). The average percent kinase inhibition from replicate data was ranked low to high, converted to a compatible identifier format, then input into Coral Human Kinome Visualization software for presentation analysis. […] Scaling of evolutionary distance for PI kinases is only relative and is based on literature analysis[62],[63]. Average percent kinome inhibition values from replicate data are supplied in Source Data file. […]. Corrected data was normalized to vehicle treated control values, and dose response percent kinase activity was analyzed by non-linear regression for determination of IC50 values.

mTOR = mTOR (Homo sapiens, UniProt P42345); experiment: Target kinase 10-point inhibition assay, mTOR; format: biochemical; conditions: replicates
Chain of mTOR (P42345 1360-2549 limits assumed): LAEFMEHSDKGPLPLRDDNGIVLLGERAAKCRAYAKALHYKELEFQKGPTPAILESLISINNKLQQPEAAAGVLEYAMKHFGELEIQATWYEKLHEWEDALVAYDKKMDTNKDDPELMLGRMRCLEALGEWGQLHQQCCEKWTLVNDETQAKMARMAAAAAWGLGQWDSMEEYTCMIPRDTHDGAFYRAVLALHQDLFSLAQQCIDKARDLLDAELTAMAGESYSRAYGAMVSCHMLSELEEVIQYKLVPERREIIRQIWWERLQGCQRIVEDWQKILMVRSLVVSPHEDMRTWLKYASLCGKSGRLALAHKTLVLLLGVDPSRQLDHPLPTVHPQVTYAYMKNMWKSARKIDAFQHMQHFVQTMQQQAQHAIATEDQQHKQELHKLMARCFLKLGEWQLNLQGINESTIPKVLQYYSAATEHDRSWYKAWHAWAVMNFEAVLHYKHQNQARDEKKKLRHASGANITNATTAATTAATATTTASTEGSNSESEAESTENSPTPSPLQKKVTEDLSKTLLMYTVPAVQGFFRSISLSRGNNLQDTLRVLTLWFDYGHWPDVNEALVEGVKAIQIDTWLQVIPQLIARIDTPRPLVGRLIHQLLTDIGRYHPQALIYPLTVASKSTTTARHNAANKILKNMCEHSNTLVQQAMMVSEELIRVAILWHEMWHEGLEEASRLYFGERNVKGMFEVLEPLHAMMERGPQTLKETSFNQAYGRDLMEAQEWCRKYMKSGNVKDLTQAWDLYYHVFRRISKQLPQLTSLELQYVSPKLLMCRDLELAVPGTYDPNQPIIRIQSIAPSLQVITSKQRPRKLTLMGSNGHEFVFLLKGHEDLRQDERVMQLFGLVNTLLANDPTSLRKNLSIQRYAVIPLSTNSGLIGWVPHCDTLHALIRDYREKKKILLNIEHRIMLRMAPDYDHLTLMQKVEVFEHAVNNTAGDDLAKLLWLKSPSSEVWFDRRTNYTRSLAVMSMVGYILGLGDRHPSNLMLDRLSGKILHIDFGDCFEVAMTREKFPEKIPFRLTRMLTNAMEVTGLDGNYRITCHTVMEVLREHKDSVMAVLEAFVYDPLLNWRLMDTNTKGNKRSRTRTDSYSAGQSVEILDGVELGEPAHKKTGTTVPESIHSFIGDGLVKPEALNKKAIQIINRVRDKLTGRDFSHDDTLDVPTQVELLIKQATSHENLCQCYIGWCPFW
Description: as §1

[1] = molecular target: T1, Target kinase isoforms (PI3K, mTOR, RAF, MEK) (Homo sapiens, UniProt O00329); experiment: Target kinase isoforms 10-point IC50 determination (Supplementary Fig. 7); format: biochemical; conditions: PI3K delta
T1 sequence (O00329 1-1044): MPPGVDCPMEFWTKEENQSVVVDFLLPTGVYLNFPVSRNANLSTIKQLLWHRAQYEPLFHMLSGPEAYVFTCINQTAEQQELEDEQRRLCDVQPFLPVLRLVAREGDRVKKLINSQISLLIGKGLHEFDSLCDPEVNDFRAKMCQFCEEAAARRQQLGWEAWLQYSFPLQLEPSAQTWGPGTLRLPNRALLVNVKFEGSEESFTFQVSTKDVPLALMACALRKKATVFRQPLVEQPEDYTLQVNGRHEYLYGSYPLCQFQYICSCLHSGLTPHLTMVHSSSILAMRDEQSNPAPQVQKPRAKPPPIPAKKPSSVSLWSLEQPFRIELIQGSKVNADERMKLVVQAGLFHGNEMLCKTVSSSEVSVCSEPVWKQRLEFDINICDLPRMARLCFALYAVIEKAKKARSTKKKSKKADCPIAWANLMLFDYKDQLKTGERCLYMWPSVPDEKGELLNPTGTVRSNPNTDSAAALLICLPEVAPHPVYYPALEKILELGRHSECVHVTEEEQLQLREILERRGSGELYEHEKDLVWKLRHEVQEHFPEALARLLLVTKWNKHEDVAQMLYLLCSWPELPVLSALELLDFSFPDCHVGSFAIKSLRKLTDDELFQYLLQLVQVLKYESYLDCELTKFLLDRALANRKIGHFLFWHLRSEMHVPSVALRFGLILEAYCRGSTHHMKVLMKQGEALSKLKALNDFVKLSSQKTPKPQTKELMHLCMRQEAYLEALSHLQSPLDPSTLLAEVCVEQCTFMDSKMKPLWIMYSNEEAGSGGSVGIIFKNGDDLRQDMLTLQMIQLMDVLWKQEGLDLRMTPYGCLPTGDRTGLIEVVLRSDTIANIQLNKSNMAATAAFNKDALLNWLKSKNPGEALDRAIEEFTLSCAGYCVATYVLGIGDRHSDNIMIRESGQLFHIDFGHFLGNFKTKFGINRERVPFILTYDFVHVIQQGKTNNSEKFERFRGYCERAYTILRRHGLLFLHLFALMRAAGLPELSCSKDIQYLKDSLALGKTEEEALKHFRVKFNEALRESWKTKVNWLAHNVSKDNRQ
Method in brief: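 Kinase activity across a 10-point dose series was corrected and normalized to vehicle-treated controls. IC50 values were derived by non-linear regression of percent activity. Kinome-wide percent inhibition was averaged over replicates.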

SET-2 cells = experiment: SET-2 proliferation assay (CellTiter-Fluor); format: cell-based, human; conditions: 72 h, replicates (Fig. 2d)
Description: Viable cells were counted by CellTiter-Fluor Assay (Promega) according to manufacturer’s protocol, and all fluorescence values were corrected by a no-cell control. […] Caspase activity was measured by Caspase-Glo 3/7 assay (Promega) according to the manufacturer’s protocol, and all luminescence values were corrected by a no-cell control. Dose response proliferation and Caspase activation data was normalized to vehicle treated control cells and analyzed by non-linear regression for determination of IC50 values. Data was generated from n = 3 independent experiments performed in replicate.

Chain of PI3Kγ (P48736 whole entry, canonical isoform): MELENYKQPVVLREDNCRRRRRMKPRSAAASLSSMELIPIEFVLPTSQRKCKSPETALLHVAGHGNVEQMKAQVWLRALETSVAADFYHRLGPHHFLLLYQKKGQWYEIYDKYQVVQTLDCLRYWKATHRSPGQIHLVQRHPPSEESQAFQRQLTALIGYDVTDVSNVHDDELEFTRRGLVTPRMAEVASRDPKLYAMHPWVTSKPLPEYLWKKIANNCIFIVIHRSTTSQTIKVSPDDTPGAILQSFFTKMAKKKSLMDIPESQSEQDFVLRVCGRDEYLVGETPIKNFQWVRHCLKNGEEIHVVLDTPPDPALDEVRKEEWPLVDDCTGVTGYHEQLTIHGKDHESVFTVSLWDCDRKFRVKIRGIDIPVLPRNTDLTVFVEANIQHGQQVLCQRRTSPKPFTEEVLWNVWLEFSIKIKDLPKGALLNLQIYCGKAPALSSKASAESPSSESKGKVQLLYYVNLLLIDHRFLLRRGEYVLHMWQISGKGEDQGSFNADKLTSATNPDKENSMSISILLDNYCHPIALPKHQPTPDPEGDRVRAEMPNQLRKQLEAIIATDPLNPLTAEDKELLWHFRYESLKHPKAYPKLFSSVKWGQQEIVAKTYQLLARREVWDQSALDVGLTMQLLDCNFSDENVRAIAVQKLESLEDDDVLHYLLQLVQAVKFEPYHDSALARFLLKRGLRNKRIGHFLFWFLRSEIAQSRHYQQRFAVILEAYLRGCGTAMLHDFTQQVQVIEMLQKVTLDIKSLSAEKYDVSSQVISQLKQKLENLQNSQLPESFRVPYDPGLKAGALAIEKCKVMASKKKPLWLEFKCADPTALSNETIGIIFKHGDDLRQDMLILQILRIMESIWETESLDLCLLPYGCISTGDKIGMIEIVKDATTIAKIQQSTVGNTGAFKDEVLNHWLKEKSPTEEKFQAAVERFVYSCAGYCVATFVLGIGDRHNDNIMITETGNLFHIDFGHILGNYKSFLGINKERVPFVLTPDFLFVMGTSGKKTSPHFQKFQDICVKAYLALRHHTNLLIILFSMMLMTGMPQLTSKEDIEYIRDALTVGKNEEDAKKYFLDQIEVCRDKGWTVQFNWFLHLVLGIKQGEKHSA

activity at 18.7 pM (PI3Kγ; 0.0187 nM): 98% | Kinase Activity (%) (PI3Kγ; 0.0187 nM, 18.7 pM): 118% and 115% and 109% | Kinase Activity (%) (PI3Kγ; 0.0562 nM, 56.2 pM): 103% and 91% and 124% | Kinase Activity (%) (PI3Kγ; 1110 nM, 1.11 µM): 0% (4×) and 8% and 1% | Kinase Activity (%) (PI3Kγ; 3330 nM, 3.33 µM): 0% (5×) and 3% | Kinase Activity (%) (PI3Kγ; 10000 nM, 10 µM): 3% and 0% (4×) and 8% | activity at 6.09 pM (PI3Kγ; […]): 102% | activity at 0.000495 µM (mTOR; 0.495 nM): 96% | Kinase Activity (%) (mTOR; 0.495 nM, 0.000495 µM): 89% and 90% (2×) and 92% | activity at 0.00152 µM (mTOR; 1.52 nM): 78% | Kinase Activity (%) (mTOR; 1.52 nM, 0.00152 µM): 80% and 77% and 74% and 83% and 76% | activity at 0.00457 µM (mTOR; 4.57 nM): 63% | Kinase Activity (%) (mTOR; 4.57 nM, 0.00457 µM): 61% and 56% and 52% and 57% and 58% | Kinase Activity (%) (mTOR; 123 nM, 0.123 µM): 7% (2×) and 3% and 2% and 5% and 0% | Kinase Activity (%) (mTOR; 1110 nM, 1.11 µM): 5% and 3% and 2% and -4% and -2% and -1% | Kinase Activity (%) (mTOR; 3330 nM, 3.33 µM): 3% and 2% and 1% and -3% and -2% and -4% | Kinase Activity (%) (mTOR; 10000 nM, 10 µM): 6% and 3% and 0% and -1% and 1% and -2% | Kinase Activity (%) PI3K delta ([1]; concentration 0.0187 nM, 18.7 pM): 106% and 96% and 89% and 81% | Kinase Activity (%) PI3K delta ([1]; concentration 41.2 nM, 0.0412 µM): 2% and 3% | Kinase Activity (%) PI3K delta ([1]; concentration 123 nM, 0.123 µM): 1% and 3% | Kinase Activity (%) PI3K delta ([1]; concentration 370 nM, […]): 2% | activity at 1.11 µM ([1]; concentration 1110 nM): 0% | Kinase Activity (%) PI3K delta ([1]; concentration 3330 nM, 3.33 µM): 2% | Kinase Activity (%) PI3K delta ([1]; concentration 10000 nM, 10 µM): 9%
Compound: O=S(=O)(Nc1cc(-c2ccc3ncc(N4CCNCC4)nc3c2)cnc1Cl)c1ccc(F)cc1 [LP-527, N-(2-chloro-5-(3-(piperazin-1-yl)quinoxalin-6-yl)pyridin-3-yl)-4-fluorobenzenesulfonamide]
Kinase Activity (%) (PI3Kγ; 0.495 nM, 0.000495 µM): 94% (2×) and 75% and 83% and 72% and 100% and 97% and 99% and 96% | Kinase Activity (%) (PI3Kγ; 1.52 nM, 0.00152 µM): 67% and 68% and 73% and 64% and 69% (2×) and 94% and 93% and 92% and 65% | Kinase Activity (%) (PI3Kγ; 4.57 nM, 0.00457 µM): 52% and 53% and 49% and 45% and 47% and 76% and 79% and 62% and 70% and 55% | Kinase Activity (%) (PI3Kγ; 41.2 nM, 0.0412 µM): 18% and 7% and 11% and 10% and 9% and 25% and 24% and 17% and 23% and 14% | Kinase Activity (%) (PI3Kγ; 123 nM, 0.123 µM): 5% and 3% (2×) and 6% and 4% and 11% and 10% (2×) and 9% and 8% | Kinase Activity (%) (mTOR; 41.2 nM, 0.0412 µM): 15% and 14% and 8% and 12% and 0% and 10% | Kinase Activity (%) PI3K delta ([1]; concentration 0.0562 nM, 56.2 pM): 100% and 95% and 78% and 86% and 79% and 91% | Growth (%) (SET-2 cells; 0.0390625 µM): 97.7197% and 103.197% and 95.0232% and 96.0199% and 87.1186% and 84.2432% | Growth (%) (SET-2 cells; 0.078125 µM): 102.201% and 95.8185% and 100.256% and 94.6633% and 89.3668% and 84.7402% | Growth (%) (SET-2 cells; 0.15625 µM): 60.7367% and 65.6255% and 73.87% and 70.9074% and 80.6697% and 85.462% | Growth (%) (SET-2 cells; 0.3125 µM): 89.6622% and 88.0779% and 85.9694% and 85.0557% and 87.935% and 90.4791% | Growth (%) (SET-2 cells; 0.625 µM): 81.0162% and 91.3823% and 77.1925% and 82.0932% and 77.6879% and 82.066% | Growth (%) (SET-2 cells; 5 µM): 12.7992% and 7.412% and 15.3388% and 14.5913% and 45.9761% and 39.8941% | Growth (%) (SET-2 cells; 10 µM): -3.542% and -5.534% and -4.236% and 0.443% and 15.3648% and 16.0393% | Growth (%) (SET-2 cells; 20 µM): -8.838% and -10.5585% and -11.075% and -10.5212% and 6.443% and 9.661%

Reference: PMC9386018, “A lymphatic-absorbed multi-targeted kinase inhibitor for myelofibrosis therapy” (Nature Communications, 2022)
